Laboratory results taken from patent publication US20220119794A1, “CHEMICALLY PROGRAMMED NEUTROPHILS AND USES THEREOF” (VIRGINIA POLYTECHNIC INSTITUTE AND STATE UNIVERSITY, priority 2018, published 2022).

Legend:
[1] = tested on: Ly6G+ neutrophils; experiment: Analyses of neutrophil phenotype in vivo by flow cytometry; design: species or system mice
Method: (§1) Experimental animals and LPS injection. Male ApoE−/− mice (6 to 8-week old) on the C57 BL/6 background were purchased from the Jackson Laboratory and fed with regular diet or High Fat Diet. Either PBS or subclinical dose LPS (5 ng per kg body weight) was intraperitoneally injected every 3 days for 1 month. Then, the mice were sacrificed and tissues were harvested for further analyses. All animal procedures were in accordance with the US National Institutes of Health Guide for the Care and Use of Laboratory Animals and approved by the Intuitional Animal Care and Use Committee of Virginia Tech.
Analyses of neutrophil phenotype in vivo. Peripheral blood cells, bone marrow (BM) cells and splenocytes were harvested from the mice treated as described above. Cells were stained with anti-Ly6G (BioLegend, #127618, 1:200 dilution), anti-CD11b (BioLegend, #101206, 1:200 dilution), anti-CD62L (BioLegend, #104407, 1:200 dilution), anti-Dectin1 (BioLegend, #144305, 1:200 dilution), anti-LLRC32 (BioLegend, #142904, 1:200 dilution) and anti-FPN (Novus, #NBP1-21502, 1:200 dilution) antibodies. The surface phenotype of Ly6G+ neutrophils was analyzed by FACSCanto II (BD Biosciences). The data were processed by Flow Jo (Tree Star).

[2] = tested on: BM neutrophils; experiment: Surface phenotype of neutrophils before transfer, polarization for 24 h; type: cell-based, mice; conditions: polarized for 24 hours, vs PBS
Method: Bone marrow neutrophils were purified and treated with PBS, super-low-dose LPS (100 pg/ml) or 4-PBA (1 mM) for 24 h (FIGS. 16A-16B) and 48 h (FIGS. 16C-16D). The cells were stained with Annexin-V and PI, and the viability (percentage of Annexin-V-/PI-population) was determined by flow cytometry. (FIG. 16E) Surface phenotype of neutrophils was analyzed by flow cytometry after polarization for 24 h. Data are representative of three independent experiments, and error bars represent means±S.E.M. *P<0.05, **P<0.01 and ***P<0.001 as compared with PBS group; one-way ANOVA. (n=5 for each group).
Adoptive transfer of in vitro neutrophils. Bone marrow (BM) cells were isolated from ApoE−/− mice and BM neutrophils (Ly6G+ population) were purified by FACS sorting with >99.5% purity. The cells were cultured in complete RPMI with G-CSF (100 ng/ml) in the presence of subclinical dose LPS (100 pg/ml) or 4-PBA (1 mM) for 24 h. Cells were washed three times with PBS and suspended in PBS for injection. HFD-fed ApoE−/− mice were transfused with 2×10^6 neutrophils in 200 μl PBS once weekly through intravenous injection for 4 weeks. One week after the last cell transfer, mice were sacrificed and tissues were harvested for subsequent analyses.

[3] = tested on: Bone marrow (BM) neutrophils; experiment: In vitro neutrophil priming, surface phenotype by FACS; type: cell-based, C57 BL/6 mice; conditions: LPS 100 pg/ml with G-CSF, vs G-CSF alone
Method: (§2) In vitro neutrophil priming and FACS analysis. Bone marrow (BM) neutrophils were isolated from C57 BL/6 mice and cultured in complete RPMI medium containing 10% fetal bovine serum, 2 mM L-glutamine, 1% penicillin/streptomycin in the presence of G-CSF (100 ng/ml). PBS, subclinical dose LPS (100 pg/ml), oxLDL (10 μg/ml) or 4-PBA (1 mM) was added to cell cultures. After 2 days, the cells were harvested and stained with anti-Ly6G (BioLegend, #127606, 127610 or 127618, 1:200 dilution), anti-CD11b (BioLegend, #101206, 1:200 dilution), anti-CD62L (BioLegend, #104407, 1:200 dilution), anti-Dectin1 (BioLegend, #144305, 1:200 dilution), anti-LLRC32 (BioLegend, #142904, 1:200 dilution) and anti-FPN (Novus, #NBP1-21502, 1:200 dilution) antibodies. In some experiments, the cells were fixed and permeabilized using transcription factor phospho buffer set (BD Biosciences), and then stained with primary anti-p-STAT1 (Cell Signaling, #8009S, 1:50 dilution), anti-ATF4 (Proteintech, #10835-1-AP, 1:50 dilution), and anti-KLF2 (Novus, #NBP2-61812, 1:100 dilution) antibodies followed by staining with Alexa Fluor 488 conjugated goat anti-rabbit IgG (Abcam, #ab150077, 1:2000 dilution). Surface phenotype and transcription factor phosphorylation of Ly6G+ neutrophils were analyzed by FACSCanto II (BD Biosciences). For intracellular ROS detection, 5 μM CellROX Green Reagent (ThermoFisher) was added to neutrophil cultures 30 min before harvesting, and cells were analyzed by FACSCanto II (BD Biosciences). The data were processed by Flow Jo (Tree Star).

[4] = tested on: BM neutrophils; experiment: ELISA of MMP9, LTB4, MPO in neutrophil culture supernatant; type: cell-based, C57 BL/6 mice; conditions: LPS 100 pg/ml with G-CSF, vs G-CSF alone
Method: (§3) ELISA and determination of plasma lipids. For in vivo analyses, plasma was collected from the mice at time of sacrificing. For in vitro analyses, purified BM neutrophils were cultured in complete RPMI medium with G-CSF (100 ng/ml) in the presence of PBS, subclinical dose LPS (100 pg/ml), oxLDL (10 μg/ml) or 4-PBA (1 mM), and supernatant was collected after 2 d. ELISA kit of MPO was purchased from ThermoFisher, and ELISA kits of MMP9, LTB4 and TGF-β1 were purchased from R&D Systems. Cholesterol quantitation kit was purchased from Sigma-Aldrich, and triglyceride quantification kit was purchased from BioVision.

[5] = tested on: mice; conditions: mice repeatedly injected with 1.5 mg/kg LPS; cited from earlier work
[6] = tested on: BM neutrophils; experiment: Intracellular ROS detection with CellROX; type: cell-based, C57 BL/6 mice; conditions: LPS 100 pg/ml, vs PBS
Method: as §2, with “In some experiments, the cells were fixed and permeabilized using transcription factor phospho buffer set (BD Biosciences), and then stained with primary anti-p-STAT1 (Cell Signaling, #8009S, 1:50 dilution), anti-ATF4 (Proteintech, #10835-1-AP, 1:50 dilution), and anti-KLF2 (Novus, #NBP2-61812, 1:100 dilution) antibodies followed by staining with Alexa Fluor 488 conjugated goat anti-rabbit IgG (Abcam, #ab150077, 1:2000 dilution).” left out, “The data were processed by Flow Jo (Tree Star).” left out

[7] = tested on: oxCaMKII and 5-LOX in BM neutrophils; experiment: Immunoblotting of oxCaMKII and 5-LOX in neutrophils; type: cell-based, C57 BL/6 mice; conditions: LPS 100 pg/ml, vs PBS
Method: Immunoblotting. Purified BM neutrophils were cultured in complete RPMI medium with G-CSF (100 ng/ml) in the presence of PBS, subclinical dose LPS (100 pg/ml), oxLDL (10 μg/ml) or 4-PBA (1 mM), and total cell lysate was extracted on day 2. Protein samples were separated with SDS-PAGE and transferred to PVDF membranes, which were probed with anti-oxCaMKII (Millipore, #07-1387, 1:500 dilution), anti-5 LOX (Cell Signaling, #3289S, 1:500 dilution), and anti-β-actin (Santa Cruz, #sc-47778, 1:1000 dilution) primary antibodies followed by horseradish peroxidase-conjugated anti-rabbit IgG (Cell Signaling, #7074S, 1:1000 dilution) or anti-mouse IgG (Cell Signaling, #7076S, 1:1000 dilution) secondary antibodies. Images were developed by a chemiluminescence ECL detection kit (ThermoFisher).

[8] = tested on: p-STAT1, ATF4, KLF2 in BM neutrophils; experiment: p-STAT1, ATF4 and KLF2 levels in neutrophils by flow cytometry; type: cell-based, C57 BL/6 mice; conditions: LPS 100 pg/ml, vs PBS
Method: as §2

[9] = tested on: ApoE−/− mice; experiment: Subclinical low dose LPS injection in ApoE−/− mice: atherosclerotic lesions, circulating mediators; type: in vivo; conditions: for lesional oxCAMKII levels: low dose LPS vs PBS
Method: as §1
Analyses of atherosclerotic lesions. Histological analyses were performed on fresh-frozen and optimal cutting temperature (OCT) compound-embedded proximal aortic sections ([…]). Slides were fixed in 4% neutral buffered formalin for 5 min, followed by H&E or Oil Red O staining. Collagen staining was performed using the Picrosirius Red Stain Kit (Poly-Sciences) according to the manufacturer's instructions. The samples were observed under a light microscope. The percentages of total lesion area, lipid deposition, and collagen composition were calculated. For immunofluorescence staining, proximal aortic sections were fixed with 4% neutral buffered formalin for 5 min, permeabilized with 0.1% saponins, and blocked with 10% normal goat serum (Jackson ImmunoResearch) for 1 hour. To detect lesional neutrophils, the samples were stained with Alexa Fluor 647-conjugated anti-Ly6G antibody (1:50 dilution; BioLegend, no. 127610). To detect lesional macrophages, the samples were costained with eFluor 660-conjugated anti-CD68 (1:100 dilution; Thermo Fisher Scientific, no. 50-0681-82) and rabbit anti-SR-A (1:100 dilution; Thermo Fisher Scientific, no. PA5-22956) antibodies, followed by staining with DyLight 488-conjugated goat anti-rabbit immunoglobulin G (IgG) (1:100 dilution; Thermo Fisher Scientific, no. 35552) in the dark at room tem-perature for 1 hour. To detect oxCAMKII levels, the samples were stained with rabbit anti-oxCaMKII antibody (1:100 dilution; Millipore, no. 07-1387) at 4° C. overnight and then with DyLight 488-conjugated goat anti-rabbit IgG (1:100 dilution; Thermo Fisher Scientific, no. 35552) in the dark at room temperature for 1 hour. 4′,6-Diamidino-2-phenylindole was used to stain nucleus. The samples were observed under a confocal microscope.
as §3

[10] = tested on: BM neutrophils; experiment: Real-time RT-PCR of miR-24 and miR-126 in neutrophil cultures; type: cell-based, C57 BL/6 mice; conditions: LPS 100 pg/ml, 2 d, vs PBS
Method: Real-Time RT-PCR for detecting of miRNAs. For in vivo analyses, plasma was collected from the mice at time of sacrificing. Circulating miRNAs were isolated with miRNeasy Serum/Plasma kit (Qiagen). For in vitro analyses, purified BM neutrophils were cultured in complete RPMI medium with G-CSF (100 ng/ml) in the presence of PBS, subclinical dose LPS (100 pg/ml), or 4-PBA (1 mM), and miRNAs were isolated with miRNeasy mini kit (Qiagen) after 2 d. TaqMan miRNA Assay kits for detection of U6, miR-16, miR-24, and miR-126 were purchased from ThermoFisher. Real-time RT-PCR was performed following the manual. U6 expression was used as the internal control for miRNA expressions in neutrophil cultures, and miR-16 expression was used as the internal control for plasma miRNA expressions.

[11] = tested on: BM neutrophils; experiment: Lysosome-peroxisome fusion by confocal microscopy; type: cell-based, C57 BL/6 mice; conditions: LPS 100 pg/ml, 2 d, vs PBS
Method: Confocal Microscopy. Purified BM neutrophils were cultured in complete RPMI medium with G-CSF (100 ng/ml) in the presence of PBS, subclinical dose LPS (100 pg/ml), or 4-PBA (1 mM) for 2 d. To determine lysosome-peroxisome fusion, the cells were fixed with 4% PFA, deposited on slides through cytospin, and permeabilized with 0.2% Trinton X-100. The cells were blocked and stained with primary rabbit anti-mouse PMP70 antibody (1:1000) supplied in SelectFX® Alexa Fluor® 488 Peroxisome Labeling Kit (ThermoFisher, #S34201), followed by staining with Alexa Fluor 488-goat anti-rabbit secondary antibody (1:1000) supplied in the kit. After extensive washing with PBS, the cells were then stained with Cy3-anti-LAMP1 antibody (Abcam, #Ab67283, 1:1000) and observed under a confocal microscope.

[12] = LPS-injected vs PBS-injected mice
[13] = LPS-injected vs PBS-injected mice, blood, spleen, bone marrow
[14] = HFD-fed ApoE−/− mice, LPS 5 ng/kg body weight for 4 weeks, vs PBS

lipopolysaccharide [LPS]
neutrophil surface level of FPN [1, 12]: significantly reduced
neutrophil surface level of LRRC32 [1, 12]: significantly reduced
neutrophil surface CD11b [1, 13]: significantly elevated
neutrophil surface Dectin1 [1, 13]: significantly elevated
neutrophil surface-attached CD62L [1, 13]: significant reduction
percentages of neutrophils in blood, spleens and atherosclerotic plaques ([1]; mice chronically injected with LPS vs PBS): higher percentages
CD11b expression [2]: elevated expressions
CD62L expression [2]: reduced expressions
Dectin-1 expression [2]: elevated expressions
FPN expression [2]: reduced expressions
LRRC32 expression [2]: reduced expressions
surface CD11b [3]: Significantly elevated levels
surface CD62L [3]: significantly reduced levels
surface Dectin-1 [3]: Significantly elevated levels
surface FPN [3]: significantly reduced levels
surface LRRC32 [3]: significantly reduced levels
LTB4 in supernatant [4]: Significantly higher levels
MMP9 in supernatant [4]: Significantly higher levels
MPO in supernatant [4]: Significantly higher levels
necrotic cores [5]: enlarged
numbers of circulating neutrophils [5]: elevated numbers
plaque collagen content [5]: reduced
intracellular ROS level [6]: significantly higher levels
5-LOX level [7]: increased levels
oxCAMKII level [7]: increased levels
cellular level of ATF4 [8]: significantly reduced
cellular level of KLF2 [8]: significantly reduced
p-STAT1 level [8]: significantly elevated levels
atherosclerotic plaque size [9, 14]: significantly larger
circulating MPO [9, 14]: remarkable elevation
circulating levels of TGFβ [9, 14]: significantly reduced
collagen content within the plaque [9, 14]: significantly reduced
plasma LTB4 level [9, 14]: significant elevation
plasma MMP9 level [9, 14]: significant elevation
lesional oxCAMKII levels ([9]; HFD-fed ApoE−/− mice): significantly elevated
lesional oxCAMKII levels ([9]; RD-fed ApoE−/− mice): significantly elevated
miR-24 expression [10]: induced
miR-126 expression [10]: potently suppressed
fusion between peroxisome and lysosome [11]: disruption of proper fusion
